Test results from US11167007B2, “FOXM1 modulators and uses thereof” (City of Hope, priority 2016, dated 2021).

Legend:
β-catenin = assay: Western blot of β-catenin in nuclear and cytoplasmic fractions of GT1-7 cells; assay type: cell-based, murine; settings: nuclear fraction, FIG. 3D
Source text: (§1) Western Blot. Cell lysates was separated on a 6% SDS page gel and transferred to a nitrocellulose membrane. The membrane was blocked for one hour in 5% skim milk dissolved in TBS-T and probed with the following antibodies ([…]): FoxM1 (rabbit, GeneTex), AR: 441 (mouse, Santa Cruz Biotechnology), β-catenin (rabbit 9562, Cell Signaling Technology), p84 (mouse, GeneTex) and actin (mouse, Santa Cruz Biotechnology). Horse radish peroxidase linked secondary antibodies were used along with ECL reagents for visualization. Western blots were quantified using Quantity One analysis software (BioRad).
It has been previously reported that thiostrepton causes decreased levels of FOXM1. Hegde et al, Nat Chem, 3(9):725-31 (2011); Gartel, Front Oncol, 3:150 (2013). […] The nuclear association between FOXM1 and β-catenin increases the transcriptional activity of both factors. Zhang et al, Cancer Cell, 20(4):427-42 (2011). β-catenin is a key AR coactivator in a variety of cells. Yang, J Biol Chem, 277(13):11336-44 (2002); Truica et al, Cancer Res, 60(17):4709-13 (2000). The inventors believed that thiostrepton could inhibit AR activity by limiting access to nuclear β-catenin via FOXM1 depletion. […] As expected, control actin protein was observed primarily in cytoplasmic fraction.

FOXM1/β-catenin = molecular target: T1, FOXM1/β-catenin (Mus musculus, UniProt O08696); assay: Co-immunoprecipitation of β-catenin from GT1-7 cell lysates, Western blot for FOXM1; assay type: cell-based, murine; settings: FIG. 3E
T1 construct: endogenous in cells; host or cells: GT1-7
T1 sequence (O08696 1-760): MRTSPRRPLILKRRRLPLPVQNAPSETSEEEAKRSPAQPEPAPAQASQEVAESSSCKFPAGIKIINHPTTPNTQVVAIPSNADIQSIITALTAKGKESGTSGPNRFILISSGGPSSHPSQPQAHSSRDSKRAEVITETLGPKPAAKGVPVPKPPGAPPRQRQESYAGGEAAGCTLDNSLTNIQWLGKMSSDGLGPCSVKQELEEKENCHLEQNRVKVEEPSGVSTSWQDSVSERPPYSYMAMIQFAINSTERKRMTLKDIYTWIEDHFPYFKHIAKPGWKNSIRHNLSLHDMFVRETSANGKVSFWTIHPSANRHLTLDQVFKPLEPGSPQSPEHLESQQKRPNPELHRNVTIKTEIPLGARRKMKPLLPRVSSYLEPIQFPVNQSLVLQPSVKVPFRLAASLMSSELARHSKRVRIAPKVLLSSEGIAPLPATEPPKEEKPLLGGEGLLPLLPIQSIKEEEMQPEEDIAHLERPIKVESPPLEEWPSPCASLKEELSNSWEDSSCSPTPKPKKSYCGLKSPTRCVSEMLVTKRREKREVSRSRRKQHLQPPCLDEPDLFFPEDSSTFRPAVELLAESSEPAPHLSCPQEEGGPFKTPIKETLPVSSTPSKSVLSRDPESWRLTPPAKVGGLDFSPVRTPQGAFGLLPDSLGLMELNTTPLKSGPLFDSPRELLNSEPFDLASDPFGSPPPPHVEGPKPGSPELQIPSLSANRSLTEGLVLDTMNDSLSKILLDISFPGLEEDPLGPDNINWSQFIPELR
Experimental: Immunoprecipitation (IP). The co-IP assay was performed as described by Zhang et al, Cancer Cell, 20(4):427-42 (2011). In brief, cells were lysed on ice for 20 minutes in co-IP buffer containing 10 mmol/L Hepes (pH8), 300 mmol/L NaCL, 0.1 mmol/L EDTA, 20% glycerol, 0.2% NP-40 and protease inhibitor (Roche Diagnostics). Lysate was centrifuged at 10000 g for 10 minutes at 4° C. Lysate was incubated with primary antibody (β-catenin: rabbit, 9562, Cell Signaling Technology) overnight at 4° C. followed by incubation with 30 uL of Protein A/G beads for 2 hours at 4° C. Collected protein complexes were washed and analyzed by Western blotting.
as §1
Co-immunoprecipitation confirmed a direct interaction between β-catenin and FOXM1 as well as between β-catenin and AR (FIG. 3E). […]

AR activity in LA muscle = assay: RT-qPCR of androgen-regulated transcripts in LA muscle; assay type: in vivo, rat; settings: rats, four genes, FIG. 5H
Experimental: Animals and Drugs. This study was carried out in strict accordance with the recommendations in the Guide for the Care and Use of Laboratory Animals of the National Institutes of Health. All experiments were performed under the IUCAC approval of City of Hope. Animals were purchased from Jackson Laboratory (Bar Harbor, Main). For the pilot pharmacokinetic experiment, nine male Sprague Dawley rats (n=3) were administered 1, 10, or 100 mg/kg intraperitoneal injections thrice per week for four weeks. One hour following the final dose, blood and spinal fluid were collected and analyzed by mass spectrometry. For the efficacy experiment, rats were divided into 3 groups (n=7) as follows: intact, castrated, and thiostrepton. […] Following a treatment period of 7 days, rats were euthanized and organs harvested, weighed and processed for quantitative RT-PCR.
qRT-PCR. The quantitative RT-PCR method has been described by Jones et al, ACS Chem Biol, 3(7):412-8 (2008). […] Differences between experimental (x) and control (y) samples were normalized to RPL19 transcript levels (androgen unresponsive) and determined with the following calculation: (2^(Ctsgene1-Ctygene1))/(2^(CtxRPL19-CtyRPL19)) One-way analysis of variance was applied to determine statistical significant among groups, where p<0.05 was considered significant. […]

SMILES: C=C(NC(=O)C(=C)NC(=O)c1csc(C2=N[C@@H]3c4csc(n4)[C@H]4NC(=O)c5csc(n5)[C@H]([C@](C)(O)[C@@H](C)O)NC(=O)[C@H]5CSC(=N5)/C(=C/C)NC(=O)[C@H]([C@@H](C)O)NC(=O)c5csc(n5)[C@]3(CC2)NC(=O)[C@H](C)NC(=O)C(=C)NC(=O)[C@H](C)NC(=O)[C@H]([C@@H](C)CC)N[C@@H]2C=Cc3c([C@H](C)O)cc(nc3[C@H]2O)C(=O)O[C@@H]4C)n1)C(N)=O [thiostrepton]
- levels of nuclear β-catenin (β-catenin): lower levels
- amount of FOXM1 pulled down with β-catenin (FOXM1/β-catenin): reduced
- androgen-dependent gene transcript levels in LA muscle (AR activity in LA muscle): did not significantly affect
